Reference: patent US20180235900A1, “SUBCUTANEOUS RESERVOIR DEVICE AND METHOD OF MANUFACTURE” (Research Triangle Institute, priority 2017, published 2018)
Counter-ions that a name gives are not always drawn.

Experiment: TAF stability in excipients (chromatographic purity by HPLC)
Type: physicochemical
Conditions: excess TAF dissolved in excipient at 37° C., quantified by HPLC
Experimental: Excipients on the FDA GRAS list of acceptable compounds were evaluated for TAF stability and short-duration TAF release. Devices containing TAF in combination with selected GRAS excipients were evaluated in prototype devices 60 days, presented in FIG. 8. […] Tocopherol was not chosen because of the high release rate of TAF near 3.5 mg/day.

Compound: CC(C)OC(=O)[C@H](C)N[P@](=O)(CO[C@H](C)Cn1cnc2c(N)ncnc21)Oc1ccccc1 [TAF std., Tenofovir Alafenamide Fumarate]
- Chromatographic Purity: 99.88%
